{"source": "patent US12168003B2", "about": "“Selective inhibition of T follicular helper cells for treatment of autoimmune disorders” (priority 2019, dated 2024)", "type_in_all_cases": "in vivo, mouse", "key": {"EAE mice": {"tested_on": "EAE mice", "assay": "Active EAE (MOG33-55/CFA), 4EGI-1 from initiation of EAE", "procedure": "Ten-week old female mice purchased from Jackson Laboratory were subcutaneously injected at two sites with 100 μL […] emulsified in CFA (Hooke Labs) per flank. On the same day, 6 hours later, and on day 2, mice were injected with 100 ng of pertussis toxin in 200 μL i.p. Mice were monitored daily and scored on a scale of 0-5 where 0, no disease; 1, tail paralysis; 2; hind limb paresis; 3, complete hind limb paralysis; 4, front limb weakness and hind limb paralysis, and 5, moribund state. When stated, mice were either administered 25 mg/kg 4EGI-1 or vehicle i.p. from d 0 to 21 following EAE induction or 75 mg/kg 4EGI-1 or vehicle i.p. from day 12 to 21 following EAE induction and randomization. LFB-H images imported into FIJI underwent color deconvolution to isolate myelin staining. A binary image was generated and % myelination of the spinal cord was calculated. Spinal cords from mice not subjected to EAE were set to 100% and all other samples from the same group were normalized. H&E images imported into FIJI underwent color deconvolution to isolate hematoxylin staining. A binary image was generated and % infiltration of the spinal cord of was calculated. Five-micron sections of paraffin embedded tissue were stained with Akoya Biosciences® Opal™ multiplex automation kit reagents unless stated otherwise. Automated staining was performed on Leica BondRX® autostainer. The protocol was performed according to manufacturers' instructions with primary antibodies to CD19 (Cell Signaling Technology, cat #90176) and CD4 (Cell Signaling Technology, cat #25229). Briefly, all slides underwent sequential epitope retrieval with Leica Biosystems epitope retrieval 2 solution (EDTA based, pH9, Cat. AR9640), primary and secondary antibody incubation and tyramide signal amplification (TSA) with Opal® fluorophores Op690 and Op520. Primary and secondary antibodies were removed during epitope retrieval steps while fluorophores remain covalently attached to the epitope. Semi-automated image acquisition was performed on a Vectra® Polaris multispectral imaging system. After whole slide scanning at 10× the tissue was manually outlined to select fields for multispectral imaging at 20×. Phenochart® software from Akoya Biosciences was used for spectral unmixing of the whole slide scans. Scans were imported into QuPath and representative images were exported into FIJI."}, "TH2 cells and Tregs": {"tested_on": "TH2 cells and Tregs", "assay": "A. fumigatus repeat sensitization airway disease model", "procedure": "A. fumigatus Fresenius (ATCC 13073) was grown for 7 days on potato dextrose agar plates (Thermo Scientific) at 37° C. Conidia were harvested by agitation in a flask with sterile PBS+0.1% Tween-20 and filtered through a 40 μm nylon mesh. Mice were intratracheally sensitized with 1.8×10^6 conidia in 50 μL of PBS on days 0, 7, and 11. On day 0 through 17 mice were treated daily with i.p. 25 mg/kg 4EGI-1 or vehicle. On day 18, mice were euthanized and lungs were collected along with mediastinal lymph node (MedLN) and blood. Serum was obtained and stored as described above.\nSpleens, draining lymph nodes, and brains were dissociated with the plunger-end of a syringe and passed through a 70 μm nylon filter. Splenocytes were subject to RBC lysis with ACK (Ammonium-Chloride-Potassium). Ears were subject to mechanical dissociation with scissors prior to incubation in 1 mL PBS in a 48-well plate with 100 μg/mL Liberase TL and 20 μg/mL DNase I for 1.5 hours at 37° C. Following incubation, cells were further dissociated by passing through a syringe, quenched with PBS+2% FCS, and filtered through a 70 μm nylon filter. Lungs were mechanically dissociated with a razor blade and incubated in a 6 cm dish with 5 mLs RPMI containing 250 μg/mL collagenase, 50 μg/mL Liberase TL, 1 mg/mL hyaluronidase, and 200 μg/mL DNase I for 30 minutes. Following incubation, cells quenched with PBS+2% FCS, and filtered through a 70 μm nylon filter. Ear and lung cells were subject to lymphocyte isolation using a gradient (Lymphocyte Separation Medium; Cellgro). Vertebral columns were flushed with PBS through a 19-gauge needle to remove intact spinal cords. Spinal cords were subject to mechanical dissociation with scissors and incubation in 1 mL PBS with 200 μg/mL DNase I and 50 μg/mL Liberase TL for 30 minutes at 37° C. Following incubation, cells were quenched with PBS+2% FCS and filtered through a 70 μm nylon filter.\nFor quantification of OVA-specific IgG1, high-binding 96-well plates (Costar) were coated with 10 μg/mL OVA protein. For S. aureus-specific IgG1, plates were coated with heat-killed S. aureus (heat-killed at 80° C. for 30 min). For total IgE, plates were coated with 2 μg/mL rat anti-mouse IgE (Southern Biotech). Following overnight incubation at 4° C., plates were blocked with 1% BSA for 30 min at 37° C. After blocking, serum (diluted 1/20 initially then 1/2 down the plate) was incubated at 37° C. for 2 hours, plates were washed 3 times in PBS and then incubated with 1:1000 anti-mouse IgG1-HRP (Southern Biotech) or anti-mouse IgE-HRP (Southern Biotech) for 1 hour at 37° C. Plates were washed 3 times in PBS and incubated with TMB substrate. Following development, TMB Stop Solution (BioLegend®) was added and plates were read at […].\nLungs fixed in 4% PFA (ThermoFisher) and spinal cords fixed in 10% buffered formalin (Leica) were incubated overnight and moved to 70% ethanol prior to ethanol dehydration, xylene incubation, and paraffin embedding. Five-micron thick sections of lung were stained with hematoxylin and eosin (H&E), Periodic Acid-Schiff (PAS), or Masson's Trichrome Stain (MTS). Spinal cords were stained with H&E or Luxol fast blue and hematoxylin (LFB-H). Staining was visualized with an EVOS FLc microscope."}, "[1]": {"tested_on": "TH17-differentiated 2D2 T cells", "assay": "Passive EAE with TH17-differentiated 2D2 T cells pre-treated with 4EGI-1", "conditions": "2D2 T cells pre-treated with 20 μM 4EGI-1 for 1 h in vitro", "procedure": "TH17 2D2 T cells were removed from activation and treated with vehicle or 20 μM 4EGI-1 for 1 h at 37° C. in vitro prior to transfer of 9.3×10^6 2 D2 T cells i.p. per recipient. Mice were given 200 ng pertussis toxin i.p. […] following T cell injection. Animals were monitored daily for 35 days and scored on a scale of 0-5 as described above. At day 35, TFH-like (ICOS^high) Vα3.2 cells were identified from the spinal cord."}, "[2]": {"conditions": "25 mg/kg daily i.p., lung sections"}, "[3]": {"conditions": "mediastinal lymph nodes, day 18"}}}
{"smiles": "O=C(O)C(Cc1ccccc1[N+](=O)[O-])=NNc1nc(-c2ccc(Cl)c(Cl)c2)cs1", "note": "(mixture of isomers) [4EGI-1]", "values": [{"measurement": "clinical EAE severity (daily clinical score)", "setting": "EAE mice; 25 mg/kg daily i.p., day 0 to 21", "result": "significantly reduced"}, {"measurement": "disease-associated weight loss", "setting": "EAE mice; 25 mg/kg daily i.p., from EAE induction", "result": "significantly reduced"}, {"measurement": "ELFs (ectopic lymphoid follicles) in spinal cord", "setting": "EAE mice; 25 mg/kg daily, EAE mice", "result": "substantially reduced"}, {"measurement": "numbers of CD4+ T and B cells in the spinal cords", "setting": "EAE mice; 25 mg/kg daily, EAE mice, immunofluorescence", "result": "strongly reduced"}, {"measurement": "level of myelination of the spinal cord (normal = 100%)", "setting": "EAE mice; 25 mg/kg daily, Luxol fast blue", "result": "~98", "unit": "%"}, {"measurement": "CD4+ T cells producing IFN-γ in spinal cord and brain", "setting": "EAE mice; 25 mg/kg daily, day 21 of EAE", "result": "almost abolished"}, {"measurement": "CD4+ T cells producing IL-17A in spinal cord and brain", "setting": "EAE mice; 25 mg/kg daily, day 21 of EAE", "result": "almost abolished"}, {"measurement": "reduction of CD4+ T cells in the brain", "setting": "EAE mice; 25 mg/kg daily, day 21 of EAE", "result": 3, "unit": "fold"}, {"measurement": "reduction of CD4+ T cells in the spinal cord", "setting": "EAE mice; 25 mg/kg daily, day 21 of EAE", "result": 3, "unit": "fold"}, {"measurement": "reduction of TFH cells in the spleen", "setting": "EAE mice; 25 mg/kg daily, day 21 of EAE", "result": 3, "unit": "fold"}, {"measurement": "levels of pulmonary TH2 cells (GATA3+ or IL-13+)", "setting": "TH2 cells and Tregs; 25 mg/kg daily i.p., day 18", "result": "no effect"}, {"measurement": "levels of pulmonary Tregs (Foxp3+)", "setting": "TH2 cells and Tregs; 25 mg/kg daily i.p., day 18", "result": "no effect"}, {"measurement": "levels of pulmonary eosinophils", "setting": "TH2 cells and Tregs; 25 mg/kg daily i.p., day 18", "result": "no effect"}, {"measurement": "airway inflammation", "setting": "TH2 cells and Tregs; [2]", "result": "no effect"}, {"measurement": "mucin production", "setting": "TH2 cells and Tregs; [2]", "result": "no effect"}, {"measurement": "formation of GC B cells in draining lymph nodes", "setting": "TH2 cells and Tregs; [3]", "result": "strongly reduced"}, {"measurement": "formation of TFH cells in draining lymph nodes", "setting": "TH2 cells and Tregs; [3]", "result": "strongly reduced"}, {"measurement": "secretion of class-switched immunoglobulins", "setting": "TH2 cells and Tregs; serum total IgE, day 18", "result": "strongly reduced"}, {"measurement": "TFH-like 2D2 T cells (ICOShigh) in the spinal cord", "setting": "[1]", "result": "reduced by half"}, {"measurement": "development of passive EAE disease in recipient mice", "setting": "[1]", "result": "did not develop disease"}]}
